From ChEMBL document CHEMBL1147409, “3-(4-Aminobutyn-1-yl)pyridines: binding at alpha 4 beta 2 nicotinic cholinergic receptors” (Bioorg Med Chem Lett, 2004)

molecular target: Neuronal acetylcholine receptor; alpha4/beta2 (Homo sapiens, UniProt P17787+P43681); assay: Binding affinity towards nicotinic acetylcholine receptor alpha4-beta2; type: protein-complex assay
Sequence (P17787 whole entry): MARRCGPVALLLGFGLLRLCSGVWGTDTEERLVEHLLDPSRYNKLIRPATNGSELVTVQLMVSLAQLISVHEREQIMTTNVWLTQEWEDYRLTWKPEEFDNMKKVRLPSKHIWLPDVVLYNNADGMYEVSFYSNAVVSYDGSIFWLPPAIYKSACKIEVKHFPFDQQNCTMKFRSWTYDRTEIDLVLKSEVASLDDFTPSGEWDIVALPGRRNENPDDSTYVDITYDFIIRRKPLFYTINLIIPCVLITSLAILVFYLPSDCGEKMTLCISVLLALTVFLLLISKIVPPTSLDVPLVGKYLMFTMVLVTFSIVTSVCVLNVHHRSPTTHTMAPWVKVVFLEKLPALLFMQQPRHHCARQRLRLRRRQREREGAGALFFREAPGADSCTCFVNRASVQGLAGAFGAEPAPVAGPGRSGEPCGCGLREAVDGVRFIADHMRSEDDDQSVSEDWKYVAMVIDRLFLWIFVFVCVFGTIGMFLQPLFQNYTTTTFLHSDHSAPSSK
Sequence (P43681 whole entry): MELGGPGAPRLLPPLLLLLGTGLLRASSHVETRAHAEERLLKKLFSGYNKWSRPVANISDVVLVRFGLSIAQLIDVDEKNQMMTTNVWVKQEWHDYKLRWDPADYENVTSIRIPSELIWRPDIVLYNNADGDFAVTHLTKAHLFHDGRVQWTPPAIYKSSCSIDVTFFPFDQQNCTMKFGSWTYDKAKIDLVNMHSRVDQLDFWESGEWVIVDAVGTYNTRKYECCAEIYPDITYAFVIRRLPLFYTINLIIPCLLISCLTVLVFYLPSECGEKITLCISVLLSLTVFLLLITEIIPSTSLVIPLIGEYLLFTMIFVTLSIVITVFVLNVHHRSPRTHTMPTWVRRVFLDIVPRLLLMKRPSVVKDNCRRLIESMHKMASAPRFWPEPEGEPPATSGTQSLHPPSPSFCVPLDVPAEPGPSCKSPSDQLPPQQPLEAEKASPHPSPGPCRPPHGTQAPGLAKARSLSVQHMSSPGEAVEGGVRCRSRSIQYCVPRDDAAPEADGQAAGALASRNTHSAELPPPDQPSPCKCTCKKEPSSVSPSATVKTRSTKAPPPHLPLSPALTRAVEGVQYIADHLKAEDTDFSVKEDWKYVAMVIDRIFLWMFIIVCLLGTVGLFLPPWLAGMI

SMILES	Ki [nM]
CNCC#Cc1cccnc1	2290
CNC/C=C/c1cccnc1	~6000
CNCC/C=C/c1cccnc1 [RIVANICLINE]	25

molecular target: Neuronal acetylcholine receptor alpha4/beta2 (Rattus norvegicus); assay: Binding affinity towards nicotinic acetylcholine receptor alpha4-beta2 from rat brain homogenates

SMILES	Ki [nM]
CNCCOc1cccnc1	35
CNCCC#Cc1ccc(OC)nc1	> 10000
c1cncc(CN2CCCC2)c1	30
CN(C)CCC#Cc1cccnc1	510
C[N+](C)(C)CCC#Cc1cccnc1	470
C(#Cc1cccnc1)CCN1CCCC1	> 10000
c1cncc(OCCN2CCCC2)c1	212
CN(C)Cc1cccnc1	540
C[N+](C)(C)CCOc1cccnc1	0.5
CNCCC#Cc1ccc(Cl)nc1	154
C[N+](C)(C)Cc1cccnc1	110
CNCc1cccnc1	> 10000
CCN(C)Cc1cccnc1	28
CN(C)CCOc1cccnc1	21
